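Compound exposure: 48 hours, 5 concentrations, 96-well plates. The concentration for 50% growth inhibition is given as GI50.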 The source made the active and inactive calls. Cut-off read from the data, not from the text of the source: active = GI50 up to about 1.1 µM and inactive = higher. Some results are limits rather than exact numbers.

Holding throughout (experiment): inhibition of tumour cell growth, NCI panel, 48 h
Experiment [1] relates to SR.
Experiment [2] has as its system HL-60.
In experiment [3] the test system is SF-268.
The subject of experiment [4] is A498.
The test system of experiment [5] is IGROV-1.
Experiment [6] concerns SNB-75.
For experiment [7], the system named is CAKI-1.
For experiment [8], the system named is T47D.
In experiment [9] the test system is HCT-116.
The test system of experiment [10] is SK-OV-3.
Experiment [11] relates to A549.
Experiment [12] deals with SF-295.
The test system of experiment [13] is DU-145.
The test system of experiment [14] is MCF7.
Experiment [15] has as its system OVCAR-4.
In experiment [16] the test system is OVCAR-3.
For experiment [17], the system named is PC-3.
Experiment [18] relates to ACHN.
The subject of experiment [19] is SNB-19.
Experiment [20] deals with UACC-257.

Regarding `Cc1ccc2ccccc2c1CSc1nc(N)nc2c1ncn2CC(C)C`, the GI50 is 4.79 µM (inactive) in experiment [1]; 16.2 µM (inactive) in experiment [2]; 45.8 µM (inactive) in [3]; 26.9 µM (inactive) in experiment [4]; 51.2 µM (inactive) in experiment [5]; 43.3 µM (inactive) in [6]. Also, the GI50 was 17 µM (inactive) in [7]; 5.05 µM (inactive) in experiment [8]; 9.82 µM (inactive) in experiment [9]; 30.5 µM (inactive) in experiment [10]; 10.9 µM (inactive) in [11]; 5.86 µM (inactive) in [12]. Besides, the GI50 in [13] is 82.4 µM (inactive); in experiment [14] it was 12.9 µM (inactive); in [15] it was 11.1 µM (inactive); in experiment [16] it was 14.4 µM (inactive); in experiment [17], 13.9 µM (inactive); in [18] it was 16.4 µM (inactive). Also, the GI50 was 48.3 µM (inactive) in [19] and 11.7 µM (inactive) in experiment [20].
Turning to `CC(C)(CCCCC(C)(C)NCC1COc2ccccc2O1)NCC1COc2ccccc2O1` (stereo not given), the GI50 in experiment [1] is > 10 µM (inactive); in experiment [2], > 10 µM (inactive); in experiment [3] it was 5.45 µM (inactive); in experiment [4] it was > 10 µM (inactive); in experiment [5], > 10 µM (inactive); in [6], 9.38 µM (inactive). The GI50 is > 10 µM (inactive) in experiment [7]; 7.83 µM (inactive) in experiment [8]; 7.91 µM (inactive) in experiment [9]; > 10 µM (inactive) in [10]; > 10 µM (inactive) in experiment [11]; 9.95 µM (inactive) in [12]. Moreover, the GI50 is > 10 µM (inactive) in experiment [13]; 5.98 µM (inactive) in [14]; > 10 µM (inactive) in [15]; > 10 µM (inactive) in experiment [16]; > 10 µM (inactive) in [17]; > 10 µM (inactive) in [18]. Moreover, the GI50 in experiment [19] is > 10 µM (inactive); in experiment [20] it was 2.04 µM (inactive).
As to `O/N=N\c1nc(-c2ccccn2)nc2ccccc12`, the GI50 was 2.38 µM (inactive) in [1]; 0.984 µM (active) in [2]; 11.7 µM (inactive) in experiment [3]; 32.4 µM (inactive) in experiment [4]; 17 µM (inactive) in [5]; 20.3 µM (inactive) in experiment [6]. In addition, the GI50 was 2.12 µM (inactive) in experiment [7]; 2.83 µM (inactive) in experiment [8]; 3.33 µM (inactive) in experiment [9]; 55.5 µM (inactive) in [10]; 45.3 µM (inactive) in [11]; 22 µM (inactive) in experiment [12]. The GI50 is 15 µM (inactive) in experiment [13]; 4.76 µM (inactive) in [14]; 8.05 µM (inactive) in experiment [15]; 0.743 µM (active) in experiment [16]; 11.7 µM (inactive) in experiment [17]; 2.14 µM (inactive) in experiment [18]. The results for the GI50 in experiment [19] and in [20] were 42.3 µM (inactive) and 7.69 µM (inactive), respectively.
As to `COC1=CC(=O)c2c(O)c3c(c(O)c2C1=O)CC(C)(O)OC3` (stereo not given) [FUSARUBIN], the GI50 in experiment [1] is 5.36 µM (inactive); in [2] it was 2.42 µM (inactive); in experiment [3], 3.85 µM (inactive); in experiment [4], 9.66 µM (inactive); in experiment [5], 1.99 µM (inactive); in [6], 16.1 µM (inactive). The GI50 in experiment [7] was 3.73 µM (inactive); in [8] it was 2.05 µM (inactive); in [9] it was 2.96 µM (inactive); in experiment [10], 18.2 µM (inactive); in experiment [11] it was 1.99 µM (inactive); in experiment [12], 3.12 µM (inactive). For the same compound, the GI50 was 3.97 µM (inactive) in [13]; 1.34 µM (inactive) in [14]; 1.4 µM (inactive) in experiment [15]; 0.906 µM (active) in [16]; 2.52 µM (inactive) in experiment [17]; 2.95 µM (inactive) in experiment [18]. The values for the GI50 in experiment [19] and in experiment [20] were 3.27 µM (inactive) and 2.02 µM (inactive), respectively.
